Laboratory results published in the NIST ThermoML archive (doi:10.1016/j.fluid.2005.06.017).
Numbers after ± are expanded uncertainties.

Details: Liquid, Ebulliometric method (Recirculating still)

Compound	vapor or sublimation pressure (353.15 K) [kPa]	vapor or sublimation pressure (333.15 K) [kPa]	vapor or sublimation pressure (373.15 K) [kPa]
CCC(C)(C)OC [2-methoxy-2-methylbutane]	86.7 ± 3.1	–	–
COC(C)(C)C [2-methoxy-2-methylpropane]	–	120.4 ± 3.2	–
CN1CCCC1=O [N-methylpyrrolidone]	1.3	0.5	3.6 ± 3
CCCOCCC [dipropyl ether]	74.1 ± 3.1	–	135.5 ± 3.1
